Test results: ChEMBL document CHEMBL1201862, “PubChem BioAssay data set” (2004)
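In this assay, cells in 96-well plates receive the compound at five concentrations for 48 hours. Endpoints are linearly interpolated between the surrounding concentrations. GI50 is the concentration that inhibits growth by half.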 Calls of active or inactive are those of the source. Rule as the data show it: active = GI50 up to about 1.1 µM and inactive = higher.

Columns and labels:
Test in all cases: inhibition of tumour cell growth, NCI panel, 48 h
MOLT-4 = test system: MOLT-4
HOP-92 = test system: HOP-92
UACC-257 = test system: UACC-257
HL-60 = test system: HL-60
SNB-19 = test system: SNB-19
NCI-H522 = test system: NCI-H522
M14 = test system: M14
SK-MEL-5 = test system: SK-MEL-5
IGROV-1 = test system: IGROV-1
SN12C = test system: SN12C
HCT-15 = test system: HCT-15
RXF 393 = test system: RXF 393
HOP-62 = test system: HOP-62
OVCAR-8 = test system: OVCAR-8
786-0 = test system: 786-0
SR = test system: SR
SK-OV-3 = test system: SK-OV-3

Row | Compound | GI50 (MOLT-4) | GI50 (HOP-92) | GI50 (UACC-257) | GI50 (HL-60) | GI50 (SNB-19) | GI50 (NCI-H522) | GI50 (M14) | GI50 (SK-MEL-5) | GI50 (IGROV-1) | GI50 (SN12C) | GI50 (HCT-15) [µM] | GI50 (RXF 393) | GI50 (HOP-62) | GI50 (OVCAR-8) | GI50 (786-0) | GI50 (SR) | GI50 (SK-OV-3)
1 | N/N=C1\C(=O)N(c2ccc(Cl)c(Cl)c2)C(=O)C1C(=O)Nc1ccc(Cl)c(Cl)c1 (configuration not stated) | 42.4 µM (inactive) | 48.1 µM (inactive) | 71 µM (inactive) | 74.5 µM (inactive) | 28.2 µM (inactive) | 50.9 µM (inactive) | > 100 µM (inactive) | 17.5 µM (inactive) | 73.8 µM (inactive) | 51.5 µM (inactive) | 50.7 | > 100 µM (inactive) | 41.4 µM (inactive) | 42.8 µM (inactive) | 89.5 µM (inactive) | – | –
2 | Cc1cc(NCCCCCCCNc2cc(C)nc3cc(N)ccc23)c2ccc(N)cc2n1 | 33.4 µM (inactive) | – | 47.6 µM (inactive) | 3.1 µM (inactive) | 47.2 µM (inactive) | 13.7 µM (inactive) | 43 µM (inactive) | 22.2 µM (inactive) | – | 10.5 µM (inactive) | > 100 | 79.3 µM (inactive) | 41.9 µM (inactive) | 36.3 µM (inactive) | > 100 µM (inactive) | 18.6 µM (inactive) | 40.6 µM (inactive)
3 | CC(=O)OC1(C#N)CC2OC1C1C2N1C(=O)c1ccccc1 (configuration not stated) | > 100 µM (inactive) | > 100 µM (inactive) | – | > 100 µM (inactive) | > 100 µM (inactive) | > 100 µM (inactive) | > 100 µM (inactive) | > 100 µM (inactive) | > 100 µM (inactive) | > 100 µM (inactive) | > 100 | > 100 µM (inactive) | > 100 µM (inactive) | > 100 µM (inactive) | > 100 µM (inactive) | – | > 100 µM (inactive)
4 | CC(C(=O)N1C(=O)N(C(=O)C(C)C(O)c2ccccc2)C2CCCCC21)C(O)c1ccccc1 (configuration not stated) | 26.2 µM (inactive) | – | – | 27.7 µM (inactive) | 92.7 µM (inactive) | 46.8 µM (inactive) | 79.8 µM (inactive) | 30.1 µM (inactive) | > 100 µM (inactive) | > 100 µM (inactive) | > 100 | 66.1 µM (inactive) | > 100 µM (inactive) | 88.3 µM (inactive) | > 100 µM (inactive) | 28.6 µM (inactive) | –
5 | CC(=O)OC1COC(N2CCc3cc([N+](=O)[O-])ccc32)C(OC(C)=O)C1OC(C)=O (configuration not stated) | > 100 µM (inactive) | 36 µM (inactive) | > 100 µM (inactive) | – | > 100 µM (inactive) | > 100 µM (inactive) | > 100 µM (inactive) | > 100 µM (inactive) | > 100 µM (inactive) | – | > 100 | > 100 µM (inactive) | > 100 µM (inactive) | > 100 µM (inactive) | > 100 µM (inactive) | > 100 µM (inactive) | > 100 µM (inactive)
6 | c1ccc2c(c1)n1nnnc1c1nnnn21 | > 100 µM (inactive) | 18.6 µM (inactive) | > 100 µM (inactive) | – | > 100 µM (inactive) | 12.6 µM (inactive) | > 100 µM (inactive) | > 100 µM (inactive) | > 100 µM (inactive) | > 100 µM (inactive) | > 100 | 87.3 µM (inactive) | > 100 µM (inactive) | 92.7 µM (inactive) | 83.4 µM (inactive) | – | > 100 µM (inactive)
7 | COC(=O)c1ccc(N/C=C(/C#N)c2ccsc2)cc1 | > 100 µM (inactive) | – | 32.6 µM (inactive) | > 100 µM (inactive) | 12.2 µM (inactive) | – | – | – | 27.1 µM (inactive) | > 10 µM (inactive) | 50.9 | 11.4 µM (inactive) | 13.3 µM (inactive) | 6.61 µM (inactive) | 11.1 µM (inactive) | > 100 µM (inactive) | –
8 | O=C1NC(=S)NC(=O)C1=Cc1cc2c(cc1[N+](=O)[O-])OCO2 | 51.4 µM (inactive) | – | > 100 µM (inactive) | 35.8 µM (inactive) | > 100 µM (inactive) | > 100 µM (inactive) | 77.6 µM (inactive) | > 100 µM (inactive) | > 100 µM (inactive) | 74.6 µM (inactive) | 39.7 | > 100 µM (inactive) | > 100 µM (inactive) | 73.3 µM (inactive) | 62.8 µM (inactive) | 35.9 µM (inactive) | > 100 µM (inactive)
9 | Cc1ccc(C)c(NC(=O)C(=O)C2C(=O)N(c3ccccc3)N=C2N)c1 (configuration not stated) | > 100 µM (inactive) | > 100 µM (inactive) | > 100 µM (inactive) | 31.7 µM (inactive) | > 100 µM (inactive) | > 100 µM (inactive) | > 100 µM (inactive) | > 100 µM (inactive) | > 100 µM (inactive) | > 100 µM (inactive) | > 100 | > 100 µM (inactive) | > 100 µM (inactive) | > 100 µM (inactive) | > 100 µM (inactive) | – | –
